Measured values: patent US20130158024A1, “TRICYCLIC NECROSTATIN COMPOUNDS” (priority 2005, published 2013)

Key:
[1] = test system: Jurkat T cells; assay: Necrosis (CICD) of Jurkat T cells induced by Fas ligand, cycloheximide and zVAD, ATP assay; assay type: cell-based, human; conditions: FasL/CHX/zVAD
Procedure: Jurkat cells were treated with 5 ng/ml of FasL without (A) or with cyclohexamide (CHX) (B) to induce apoptosis, or 5 ng/ml FasL, 1 μg/ml of CHX and 100 μM of zVAD.fmk to induce CICD (B). […] Cell viability was determined after 24 hours of incubation with indicated reagents using CellTiter-Glo ATP assay. The values represent viability relative to the control Jurkat cells without the treatment of FasL, which was set as 100% viability.
FIG. 34A is a graph showing the results of treating Jurkat T cells with Fas ligand (5 ng/ml), cyclohexamide (1 μg/ml) and zVAD (100 μM) in the presence of the indicated amounts of anti-necrotic compounds (4) and (5). Viability was determined 36 hours later using an ATP assay. The viability values are relative to the samples lacking Fas ligand, which were used as 100% viability controls. FIG. 34B is a graph as in FIG. 34A, in which the anti-necrotic compounds are (19) and (20).
Compounds were also tested in another necrosis assay utilizing human Jurkat T cells, Fas ligand to induce cell death, and zVAD to inhibit the apoptosis pathway. After 36 hours, cell viability was measure by the commercial CellTiter ATP cell viability assay (Promega).

[2] = test system: SH-SY5Y cells; assay: MPP+ cytotoxicity in SH-SY5Y neuroblastoma cells in the presence of zVAD, ATP assay; assay type: cell-based, human; conditions: zVAD 100 μM, compound 30 μM, 72 hours
Procedure: FIG. 15 is a chart showing that necrostatins attenuate MPP^+ cytotoxicity in human SH-SY5Y neuroblastoma cells. Cells were treated with 5 mM MPP^+ in the presence or absence of 100 μM zVAD.fmk and 30 μM necrostatins for 72 hours, followed by an ATP assay. Values represent cell viability normalized to the corresponding compound treated controls not treated with MPP^+.
(§1) FIG. 35A is a graph showing the results of treating SH-SY5Y cells with 1 mM MPP+ in the presence of zVAD (100 μM) and compound (19) (30 μM) for 72 hours. Cell viability was determined using an ATP assay. FIG. 35B is a graph as in FIG. 35A, in which cells were treated in the presence of 100 μM amyloid-beta 25-35 protein rather than MPP+.

[3] = test system: SH-SY5Y cells; assay: Amyloid-beta 25-35 toxicity in SH-SY5Y cells in the presence of zVAD, ATP assay; assay type: cell-based, human; conditions: 100 μM amyloid-beta 25-35, zVAD 100 μM, compound 30 μM, 72 hours
Procedure: as §1
To further verify that (19) can protect neuronal cells from necrosis, it was tested using two different neurotoxins in the human neuroblastoma cell line SH-SY5Y in the presence of zVAD. Cell death was induced by β-amyloid, a cellular model of Alzheimer's disease, and […] (MPP+), a cellular model of Parkinson's disease.

[4] = test system: Jurkat cells expressing dimerizable FADD; assay: Toxicity of compound alone in Jurkat cells expressing dimerizable FADD (no dimerizer); conditions: compound in the absence of dimerizer
[5] = test system: Jurkat cells expressing dimerizable FADD; conditions: Homo sapiens, Jurkat, 36 h

| SMILES | inhibition of CICD/necrosis of Jurkat cells, in words [1] | attenuation of MPP+ cytotoxicity, in words [2] | reduction of β-amyloid toxicity in SH-SY5Y, in words [3] | LD50 [4] [µM] | EC50 [5] [µM] |
| --- | --- | --- | --- | --- | --- |
| COc1ccc([C@H]2[C@H]3CCc4ccc(OC)cc4C3=NN2C(C)=O)cc1 (relative stereo) [Compound 141, (3R,3aR)-rel-2-acetyl-3,3a,4,5-tetrahydro-3-(4-methoxyphenyl)-8-methoxy-2H-benz[g]indazole] | efficiently inhibit necrosis and result in high cell viability | effective in reducing toxicity as measured by cellular ATP levels | effective in reducing toxicity as measured by cellular ATP levels |  |  |
| Cc1cc(O)c(C(=O)/C=C/c2ccc(O)c([N+](=O)[O-])c2)c(=O)o1 [Nec-2] |  | especially pronounced in case of Nec-2 |  | 134 | 27.3 |
